Assay results from patent US20240398822A1, “METHODS AND COMPOSITIONS FOR TREATING AND MANAGING ALZHEIMER'S DISEASE” (Pharmatrophix, Inc., priority 2021, published 2024).
Entries after “also recorded” stand apart in the source; their conditions may differ.

Assays:
[1] = tested on: patients with mild to moderate Alzheimer's disease; assay: Phase IIa safety and tolerability (adverse events, vital signs, ECG, MRI, laboratory); assay type: in vivo, human; settings: for subjects who discontinued the phase 2a trial due to AEs or SAEs: of 16 subjects in total; for course of the increase in eosinophil level: also where treatment was continued; for overall safety and tolerability: phase IIa
Text: Safety monitoring included the full extent of phase 2 clinical and laboratory testing.
For all safety evaluations, only an overall ‘Safety’ population is described. This includes all patients who received at least one dose of medication and consider all patients according to the treatment they actually receive. Additionally, a PK population will be described for only patients receiving active study IMP.

[2] = tested on: amyloid based mice (L/S-APP) or tau based mice (PS19); settings: published mouse studies, cited from earlier work
[3] = tested on: tau; assay: Phase IIa CSF total tau; assay type: in vivo, human
Text: (§1) CSF samples were obtained at screening Visit and final Visit via lumbar puncture to determine levels of tau, p-tau, Aβ40, Aβ42 and AChE activity as an initial set of CSF biomarkers. Aliquots of CSF were made available for emerging CSF biomarker methods such as measurement of additional biomarkers including neurofilaments light chain, neurogranin, SNAP-25, synaptotagmin, YKL-40, TREM2, tau oligomers and for measurement of drug level in selected patients based on the time period between last dose of drug and CSF sampling (FIG. 25 and FIG. 58).
Baseline CSF samples are obtained prior to administration via lumbar puncture. These samples are used to determine levels of tau, p-tau, Aβ40, Aβ42, AChE, neurofilament light chain, SNAP-25, synaptotagmin-1, neurogranin, sTREM, and YKL-40. Aliquots of CSF are also made available for emerging CSF biomarker methods such as measurement of tau oligomers and for measurement of drug level in selected patients based on time period between last dose of the salt of Formula (II) and CSF sampling. […] Many of these biomarkers can also be measured in blood or plasma. The change in values over the time period from pre-treatment to post-treatment are of particular importance. […] Absolute levels at single time points of neurofilament light chain, SNAP-25, synaptotagmin-1, neurogranin, sTREM, and YKL-40 in CSF or blood or plasma are of less value given differences in assay techniques and wide variation in absolute levels within normal subjects and within and across AD subjects. In contrast, absolute levels of Aβ42 and 40 at baseline are useful biomarkers indicating the presence of amyloid pathology as low levels of Aβ42 and 40 at a given time point are consistent with amyloid pathology.

[4] = tested on: SYT1; assay: Phase IIa CSF pre-synaptic biomarker SYT1; assay type: in vivo, human
Text: as §1
(§2) Baseline CSF samples are obtained prior to administration via lumbar puncture. These samples are used to determine levels of tau, p-tau, Aβ40, Aβ42, AChE, neurofilament light chain, SNAP-25, synaptotagmin-1, neurogranin, sTREM, and YKL-40. Aliquots of CSF are also made available for emerging CSF biomarker methods such as measurement of tau oligomers and for measurement of drug level in selected patients based on time period between last dose of the salt of Formula (II) and CSF sampling. […] Many of these biomarkers can also be measured in blood or plasma. The change in values over the time period from pre-treatment to post-treatment are of particular importance. […]

[5] = Estimating human brain exposure to drug; assay type: in vivo; settings: oral dosing at 200 mg bid and 400 mg bid
Description: Key inclusion criteria for the 2a trial include a diagnosis of mild-moderate AD by McKhann criteria and a CSF measure of Ab 42/40 ratio under 0.089 OR a Ab 42 level <550 ng/L (FIG. 28). These criteria are discussed in Schindler et al. 2018.

[6] = tested on: p-tau; assay: Phase IIa CSF p-tau; assay type: in vivo, human; settings: combined drug group
Text: as §1, §2

[7] = Stability study of capsules filled with 200 mg in blister strips; assay type: physicochemical; settings: 200 mg (free base weight) capsules in PVC-PE-PVdC/Alu, ambient 15-25° C./20-60% RH
[8] = 200 mg bid (N = 78), 26 weeks, safety population
[9] = 200 mg bid (N = 78), 26 weeks, safety population, listed as LM11A
[10] = 200 mg bid (N = 78), 26 weeks, safety population, listed as LM11A-31
[11] = 400 mg bid (N = 83), 26 weeks, safety population
[12] = 400 mg bid (N = 83), 26 weeks, safety population, listed as LM11A
[13] = 400 mg bid (N = 83), 26 weeks, safety population, listed as LM11A-31

**Q.** Which results are given for CC[C@H](C)[C@H](N)C(=O)NCCN1CCOCC1 [LM11A-31-BHS, Tris[(2S,3S)-2-amino-3-methyl-N-(2-morpholinoethyl)pentanamide] tetra(monohydrogensulfate), monosulfate]?
**A.** patients discontinued because of AEs ([1]; 200 mg bd, safety population): 2 patients; patients discontinued because of serious AE ([1]; 200 mg bd, safety population): 0 patients; AEs Leading To Discontinuation of Study IMP, % of patients [1, 8]: 6.4%; AEs Leading To Discontinuation of Study IMP, freq (events) [1, 8]: 5; AEs Leading To Discontinuation of Study IMP, n (patients) [1, 8]: 5; Adverse events, Drug Relationship: Not Related, % of patients [1, 8]: 52.6%; Adverse events, Drug Relationship: Not Related, freq (events) [1, 8]: 85; Adverse events, Drug Relationship: Not Related, n (patients) [1, 8]: 41; Adverse events, Drug Relationship: Related, freq (events) [1, 8]: 15; Adverse events, Drug Relationship: Related, n (patients) [1, 8]: 12; Adverse events, Intensity: Mild, freq (events) [1, 8]: 86; Adverse events, Intensity: Mild, n (patients) [1, 8]: 40; Adverse events, Intensity: Moderate, freq (events) [1, 8]: 12; Adverse events, Intensity: Moderate, n (patients) [1, 8]: 11; Adverse events, Intensity: Severe, freq (events) [1, 8]: 2; Adverse events, Intensity: Severe, n (patients) [1, 8]: 2; All Adverse Events, % of patients [1, 8]: 60.3%; All Adverse Events, freq (events) [1, 8]: 109; All Adverse Events, n (patients) [1, 8]: 47; Serious AEs, % of patients [1, 8]: 2.6%; Serious AEs, freq (events) [1, 8]: 2; Serious AEs, n (patients) [1, 8]: 2; Treatment Emergent Adverse Events (TEAEs), % of patients [1, 8]: 59.0%; Treatment Emergent Adverse Events (TEAEs), freq (events) [1, 8]: 100; Treatment Emergent Adverse Events (TEAEs), n (patients) [1, 8]: 46; Adverse events, Intensity: Severe, % of patients ([1]; 200 mg bid (N = 78), 26 weeks, safety population, listed as LM1 1A-31): 6%; Adverse events, Drug Relationship: Related, % of patients [1, 9]: 15.4%; Adverse events, Intensity: Moderate, % of patients [1, 9]: 14.1%; Adverse events, Intensity: Severe, % of patients [1, 9]: 2.6%; Adverse events, Drug Relationship: Related, % of patients [1, 10]: 15%; Adverse events, Intensity: Moderate, % of patients [1, 10]: 14%; Adverse events, Intensity: Severe, % of patients [1, 10]: 3%; Pre-Treatment Signs and Symptoms (PTSS), % of patients ([1]; 200 mg bid group (N = 78)): 10.3%; Pre-Treatment Signs and Symptoms (PTSS), freq (events) ([1]; 200 mg bid group (N = 78)): 9; Pre-Treatment Signs and Symptoms (PTSS), n (patients) ([1]; 200 mg bid group (N = 78)): 8; share of the 10 severe TEAEs ([1]; 200 mg group): 20%; subjects with GI side effects (diarrhea in most cases) ([1]; 200 mg group): approximately 8%; subjects who discontinued the phase 2a trial due to AEs or SAEs ([1]; 200 mg group): 2 subjects; patients discontinued because of AEs ([1]; 400 mg bd, safety population): 8 patients; patients discontinued because of serious AE ([1]; 400 mg bd, safety population): 3 patients; AEs Leading To Discontinuation of Study IMP, % of patients [1, 11]: 18.1%; AEs Leading To Discontinuation of Study IMP, freq (events) [1, 11]: 20; AEs Leading To Discontinuation of Study IMP, n (patients) [1, 11]: 15; Adverse events, Drug Relationship: Not Related, % of patients [1, 11]: 57.8%; Adverse events, Drug Relationship: Not Related, freq (events) [1, 11]: 150; Adverse events, Drug Relationship: Not Related, n (patients) [1, 11]: 48; Adverse events, Drug Relationship: Related, freq (events) [1, 11]: 23; Adverse events, Drug Relationship: Related, n (patients) [1, 11]: 13; Adverse events, Intensity: Mild, freq (events) [1, 11]: 119; Adverse events, Intensity: Mild, n (patients) [1, 11]: 46; Adverse events, Intensity: Moderate, freq (events) [1, 11]: 49; Adverse events, Intensity: Moderate, n (patients) [1, 11]: 24; Adverse events, Intensity: Severe, freq (events) [1, 11]: 5; Adverse events, Intensity: Severe, n (patients) [1, 11]: 5; All Adverse Events, % of patients [1, 11]: 66.3%; All Adverse Events, freq (events) [1, 11]: 185; All Adverse Events, n (patients) [1, 11]: 55; Serious AEs, % of patients [1, 11]: 8.4%; Serious AEs, freq (events) [1, 11]: 7; Serious AEs, n (patients) [1, 11]: 7; Treatment Emergent Adverse Events (TEAEs), % of patients [1, 11]: 65.1%; Treatment Emergent Adverse Events (TEAEs), freq (events) [1, 11]: 173; Treatment Emergent Adverse Events (TEAEs), n (patients) [1, 11]: 54; Adverse events, Drug Relationship: Related, % of patients [1, 12]: 15.7%; Adverse events, Intensity: Moderate, % of patients [1, 12]: 28.9%; Adverse events, Intensity: Severe, % of patients [1, 12]: 6.0%; Adverse events, Drug Relationship: Related, % of patients [1, 13]: 15%; Adverse events, Intensity: Moderate, % of patients [1, 13]: 29%; Pre-Treatment Signs and Symptoms (PTSS), % of patients ([1]; 400 mg bid group (N = 83)): 9.6%; Pre-Treatment Signs and Symptoms (PTSS), freq (events) ([1]; 400 mg bid group (N = 83)): 12; Pre-Treatment Signs and Symptoms (PTSS), n (patients) ([1]; 400 mg bid group (N = 83)): 8; share of the 10 severe TEAEs ([1]; 400 mg group): 50%; subjects with GI side effects (diarrhea in most cases) ([1]; 400 mg group): approximately 35%; subjects who discontinued the phase 2a trial due to AEs or SAEs ([1]; 400 mg group): 11 subjects; subjects receiving treatment with eosinophilia reported as an adverse event ([1]; 200 and 400 mg groups together): 10 subjects; adverse events, drug groups compared with placebo ([1]; AEs otherwise similar between placebo and drug groups): higher rates in the drug group of nasopharyngitis, GI symptoms including diarrhea and transient, asymptomatic blood eosinophilia; course of the increase in eosinophil level [1]: declined to normal levels; course of the increase in eosinophil level ([1]; listed as salt of Formula (II)): transient; life-threatening (Grade 4) adverse events ([1]; any group, 26 weeks): no life-threatening (Grade 4) adverse events; heart rate and body temperature ([1]; during the visits): no clinically significant changes; rate of several adverse events, 400 mg versus 200 mg ([1]; for some events statistically significant): higher for the 400 mg group; MRI-based safety analysis ([1]; in vivo): no drug related adverse outcomes including hemorrhage or edema; also recorded: no events that raised any concern about the drug safety; safety laboratory and urine analysis ([1]; in vivo): did not show any patterns of concern; overall safety and tolerability ([1]; 26 weeks): no results raised any concerns about the safety; overall safety and tolerability ([1]; 26 weeks, listed as salt of Formula (II)): no serious adverse events occurred that raised concerns about the tolerability of the drug; 12-lead ECG ([1]; safety population): no relevant changes; also recorded: No significant changes; blood pressure ([1]; safety population): no relevant changes; also recorded: No significant changes; vital signs ([1]; safety population): no relevant changes; also recorded: No significant changes; highest eosinophil level reached ([1]; treatment group): ≤ 5000 per μl; subjects with eosinophil counts transiently above 500 per μl ([1]; verum group): 73 subjects; subjects with increased eosinophil value considered clinically significant ([1]; week 4): 11 subjects; effect on pathological tau, neurites, synapses and spines, astrocytes and microglia ([2]; GFAP and CD68 staining): inhibits levels of pathological tau, loss of neurites, loss of synapses and spines, activation of astrocytes (GFAP staining is less) and activation of microglia (CD68 staining is less); effect on synaptic function (LTP signal, EPSP slope in hippocampal slices) [2]: corrects synaptic function; CSF total tau, drug dose analysis ([3]; 200 mg bid or 400 mg bid versus placebo): trends for lowering of total tau reduction, especially at the 400 mg dose; drug effect in slowing or inhibiting the CSF tau increase, younger (<72 years) versus older (>=72 years) ([3]; annual percent change (APC), 6-month trial period): greater than that found in the older group; effect compared to placebo in decreasing the elevation of CSF tau ([3]; combined drug group, 6 month treatment period, p=0.06): near-significant effect; increase of CSF tau levels in the drug group ([3]; combined drug group, 6 months, p=0.2 (placebo increase p=0.003)): no longer detected at a significant level; CSF SYT1 levels, drug dose analysis ([4]; 200 and 400 mg doses): only nominal reductions below baseline at both doses; CSF SYT1 change in the drug group ([4]; combined drug group, 6 months, p=0.06): trend for a decrease; estimated human brain levels of drug [5]: in a range found to engage target mechanisms and derive therapeutic benefit in mouse models; CSF p-tau, drug versus placebo [6]: trend for the drug to inhibit the trend to rise in p-tau; drug stability in capsules [7]: good drug stability
